Numbers after ± are expanded uncertainties.
Assays:
[1] = xn = mol fraction of the nth substance listed; conditions: 101 kPa, Liquid; for speed of sound: Pulse-echo method
[2] = refractive index (Na D-line) (dimensionless); xn = mol fraction of the nth substance listed; conditions: 101 kPa, Liquid, Standard Abbe refractometry

Cc1ccccc1C [1,2-dimethylbenzene] + C1CCCC1
x2 = 0
Conditions | mass density, [1] [kg/m3] | refractive index, [2] | speed of sound, [1] [m/s]
298.15 K | 875.4 ± 0.5 | 1.50262 ± 0.001 | 1350 ± 2
313.15 K | 862.9 ± 0.5 | 1.49466 ± 0.001 | 1290 ± 2

Cc1ccccc1C [1,2-dimethylbenzene] + C1CCCCC1
Conditions | mass density, [1] [kg/m3] | refractive index, [2] | speed of sound, [1] [m/s]
298.15 K, x2 = 0 | 875.4 ± 0.5 | 1.50262 ± 0.00065 | 1350 ± 2
298.15 K, x2 = 0.0471 | 870.8 ± 0.5 | 1.49895 ± 0.0007 | 1343 ± 2
298.15 K, x2 = 0.0981 | 865.5 ± 0.5 | 1.49488 ± 0.00063 | 1336 ± 2
298.15 K, x2 = 0.1961 | 855.2 ± 0.5 | 1.48705 ± 0.00062 | 1323 ± 2
298.15 K, x2 = 0.2986 | 844.5 ± 0.5 | 1.47886 ± 0.00069 | 1310 ± 2
298.15 K, x2 = 0.3979 | 834 ± 0.5 | 1.47092 ± 0.00069 | 1298 ± 2
298.15 K, x2 = 0.4964 | 823.8 ± 0.5 | 1.46293 ± 0.00069 | 1288 ± 2
298.15 K, x2 = 0.5975 | 813.5 ± 0.5 | 1.45493 ± 0.00062 | 1278 ± 2
298.15 K, x2 = 0.6978 | 803.2 ± 0.5 | 1.44691 ± 0.00061 | 1269 ± 2
298.15 K, x2 = 0.796 | 793.4 ± 0.5 | 1.43924 ± 0.00068 | 1263 ± 2
298.15 K, x2 = 0.8995 | 783.4 ± 0.5 | 1.43126 ± 0.00063 | 1257 ± 2
298.15 K, x2 = 0.9512 | 778.6 ± 0.5 | 1.42739 ± 0.00068 | 1255 ± 2
313.15 K, x2 = 0 | 862.9 ± 0.5 | 1.49466 ± 0.00065 | 1289 ± 2
313.15 K, x2 = 0.0528 | 857.4 ± 0.5 | 1.49053 ± 0.00064 | 1282 ± 2
313.15 K, x2 = 0.0977 | 852.7 ± 0.5 | 1.48716 ± 0.00063 | 1275 ± 2
313.15 K, x2 = 0.1958 | 842.3 ± 0.5 | 1.47934 ± 0.00062 | 1261 ± 2
313.15 K, x2 = 0.2169 | 840 ± 0.5 | 1.47754 ± 0.00056 | 1258 ± 2
313.15 K, x2 = 0.4011 | 820.4 ± 0.5 | 1.46285 ± 0.00061 | 1234 ± 2
313.15 K, x2 = 0.4999 | 809.9 ± 0.5 | 1.45473 ± 0.00059 | 1222 ± 2
313.15 K, x2 = 0.5976 | 799.6 ± 0.5 | 1.44694 ± 0.00062 | 1211 ± 2
313.15 K, x2 = 0.6971 | 789.4 ± 0.5 | 1.43921 ± 0.00061 | 1201 ± 2
313.15 K, x2 = 0.7994 | 779 ± 0.5 | 1.43094 ± 0.00062 | 1193 ± 2
313.15 K, x2 = 0.8995 | 769.1 ± 0.5 | 1.42311 ± 0.00063 | 1186 ± 2
313.15 K, x2 = 0.9484 | 764.5 ± 0.5 | 1.41926 ± 0.00064 | 1183 ± 2

Cc1ccccc1C [1,2-dimethylbenzene] + C1CCCCCCC1
x2 = 0
Conditions | mass density, [1] [kg/m3] | refractive index, [2] | speed of sound, [1] [m/s]
298.15 K | 875.4 ± 0.5 | 1.50262 ± 0.00065 | 1350 ± 2
313.15 K | 862.9 ± 0.5 | 1.49466 ± 0.00065 | 1289 ± 2

Cc1ccccc1C [1,2-dimethylbenzene] + CC1CCCCC1
x2 = 0
Conditions | mass density, [1] [kg/m3] | refractive index, [2] | speed of sound, [1] [m/s]
298.15 K | 875.4 ± 0.5 | 1.50262 ± 0.00065 | 1350 ± 2
313.15 K | 862.9 ± 0.5 | 1.49466 ± 0.00065 | 1289 ± 2

Cc1cc(C)cc(C)c1 [1,3,5-trimethylbenzene] + C1CCCC1
x2 = 0
Conditions | mass density, [1] [kg/m3] | refractive index, [2] | speed of sound, [1] [m/s]
298.15 K | 861.1 ± 0.5 | 1.49693 ± 0.001 | 1336 ± 2
313.15 K | 848.8 ± 0.5 | 1.48923 ± 0.001 | 1277 ± 2

Cc1cc(C)cc(C)c1 [1,3,5-trimethylbenzene] + C1CCCCC1
Conditions | mass density, [1] [kg/m3] | refractive index, [2] | speed of sound, [1] [m/s]
298.15 K, x2 = 0 | 861.1 ± 0.5 | 1.49693 ± 0.00063 | 1336 ± 2
298.15 K, x2 = 0.0459 | 857.3 ± 0.5 | 1.4939 ± 0.0007 | 1331 ± 2
298.15 K, x2 = 0.0956 | 853.1 ± 0.5 | 1.49061 ± 0.0007 | 1326 ± 2
298.15 K, x2 = 0.193 | 844.8 ± 0.5 | 1.48396 ± 0.0007 | 1315 ± 2
298.15 K, x2 = 0.2937 | 835.9 ± 0.5 | 1.47698 ± 0.00069 | 1304 ± 2
298.15 K, x2 = 0.3878 | 827.5 ± 0.5 | 1.46995 ± 0.00069 | 1294 ± 2
298.15 K, x2 = 0.4953 | 817.9 ± 0.5 | 1.46201 ± 0.00069 | 1283 ± 2
298.15 K, x2 = 0.598 | 808.6 ± 0.5 | 1.45441 ± 0.00068 | 1274 ± 2
298.15 K, x2 = 0.6944 | 799.7 ± 0.5 | 1.44675 ± 0.00068 | 1265 ± 2
298.15 K, x2 = 0.796 | 790.3 ± 0.5 | 1.43896 ± 0.00068 | 1258 ± 2
298.15 K, x2 = 0.8942 | 781.5 ± 0.5 | 1.43119 ± 0.00068 | 1252 ± 2
298.15 K, x2 = 0.9515 | 776.9 ± 0.5 | 1.42697 ± 0.00068 | 1250 ± 2
313.15 K, x2 = 0 | 848.8 ± 0.5 | 1.48923 ± 0.00063 | 1277 ± 2
313.15 K, x2 = 0.0488 | 844.8 ± 0.5 | 1.48628 ± 0.0007 | 1271 ± 2
313.15 K, x2 = 0.102 | 840.2 ± 0.5 | 1.48264 ± 0.0007 | 1265 ± 2
313.15 K, x2 = 0.2008 | 831.7 ± 0.5 | 1.47604 ± 0.0007 | 1253 ± 2
313.15 K, x2 = 0.3053 | 822.6 ± 0.5 | 1.4688 ± 0.00069 | 1241 ± 2
313.15 K, x2 = 0.416 | 812.4 ± 0.5 | 1.46071 ± 0.00069 | 1229 ± 2
313.15 K, x2 = 0.5105 | 803.5 ± 0.5 | 1.4534 ± 0.00068 | 1219 ± 2
313.15 K, x2 = 0.6084 | 794.3 ± 0.5 | 1.44576 ± 0.00068 | 1209 ± 2
313.15 K, x2 = 0.7068 | 785.2 ± 0.5 | 1.43825 ± 0.00068 | 1200 ± 2
313.15 K, x2 = 0.8092 | 775.9 ± 0.5 | 1.43012 ± 0.00068 | 1191 ± 2
313.15 K, x2 = 0.911 | 766.9 ± 0.5 | 1.4222 ± 0.00068 | 1185 ± 2
313.15 K, x2 = 0.9612 | 762.7 ± 0.5 | 1.41833 ± 0.00068 | 1183 ± 2

Cc1cc(C)cc(C)c1 [1,3,5-trimethylbenzene] + C1CCCCCCC1
x2 = 0
Conditions | mass density, [1] [kg/m3] | refractive index, [2] | speed of sound, [1] [m/s]
298.15 K | 861.1 ± 0.5 | 1.49693 ± 0.00063 | 1336 ± 2
313.15 K | 848.8 ± 0.5 | 1.48923 ± 0.00063 | 1277 ± 2

Source: the NIST ThermoML archive (doi:10.1021/je901020a)
